According to PMC10392026, “Vacuolar Phosphate Transporter1 (VPT1) may transport sugar in response to soluble sugar status of grape fruits” (Horticulture Research, 2022):

Tests used:
Type in all cases: cell-based
VvVPT1 = molecular target: T1, VvVPT1 (Vitis vinifera, UniProt D7TW83); assay: fluorescent uptake in yeast, confocal microscopy; conditions: 60 uM 2-NBDG, 30 °C, 3 h; EBY.VW4000 yeast
T1 construct: gene VIT_02s0025g04540; full-length CDS (698 residues implied by VvVPT1_155-698) in pDR195, expressed in yeast hexose transport mutant EBY.VW4000

AtVPT1 = molecular target: T2, AtVPT1 (Arabidopsis thaliana, UniProt F4I0G7); conditions: 1-20 mM Pi, 30 °C, 5 d; indirect growth read-out
T2 construct: gene VPT1; full-length CDS (708 residues implied by AtVPT1_162-708) in pRS426, expressed in yeast Pi uptake mutant YP101

FaVPT1 [1] = molecular target: T3, FaVPT1 (Fragaria x ananassa, UniProt Z9SEB9UZJ4); assay: yeast growth complementation (SUSY7/ura3); conditions: […] (w/v) Suc as sole carbon source, […] °C; indirect growth read-out
T3 construct: full-length CDS (696 residues implied by FaVPT1_147-696) in pDR195, expressed in yeast sucrose transport mutant SUSY7/ura3
T3 sequence (Z9SEB9UZJ4 1-696): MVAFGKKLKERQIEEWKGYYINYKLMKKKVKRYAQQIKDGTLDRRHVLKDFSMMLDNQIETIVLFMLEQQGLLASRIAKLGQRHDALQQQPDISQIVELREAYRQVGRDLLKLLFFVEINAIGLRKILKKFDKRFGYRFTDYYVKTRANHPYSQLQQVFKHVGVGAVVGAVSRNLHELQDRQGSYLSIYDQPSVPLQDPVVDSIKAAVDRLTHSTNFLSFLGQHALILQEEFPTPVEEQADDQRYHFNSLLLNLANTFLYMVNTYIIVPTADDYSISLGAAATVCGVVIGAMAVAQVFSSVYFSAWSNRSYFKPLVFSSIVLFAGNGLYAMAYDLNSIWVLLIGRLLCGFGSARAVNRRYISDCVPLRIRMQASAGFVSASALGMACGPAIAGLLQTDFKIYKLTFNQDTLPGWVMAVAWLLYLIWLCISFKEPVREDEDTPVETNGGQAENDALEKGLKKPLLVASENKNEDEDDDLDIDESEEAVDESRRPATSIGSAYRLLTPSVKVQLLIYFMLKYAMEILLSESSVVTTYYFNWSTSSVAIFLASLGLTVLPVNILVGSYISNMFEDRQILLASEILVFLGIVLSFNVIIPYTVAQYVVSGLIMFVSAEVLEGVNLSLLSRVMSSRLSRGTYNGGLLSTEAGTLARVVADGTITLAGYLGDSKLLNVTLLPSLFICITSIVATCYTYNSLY

FaVPT1 [2] = molecular target: T3, FaVPT1; assay: fluorescent uptake in yeast, confocal microscopy; conditions: […] esculin, […] Na2HPO4 pH […] °C, […] h; SUSY7/ura3 yeast

T2 sequence (F4I0G7 1-708): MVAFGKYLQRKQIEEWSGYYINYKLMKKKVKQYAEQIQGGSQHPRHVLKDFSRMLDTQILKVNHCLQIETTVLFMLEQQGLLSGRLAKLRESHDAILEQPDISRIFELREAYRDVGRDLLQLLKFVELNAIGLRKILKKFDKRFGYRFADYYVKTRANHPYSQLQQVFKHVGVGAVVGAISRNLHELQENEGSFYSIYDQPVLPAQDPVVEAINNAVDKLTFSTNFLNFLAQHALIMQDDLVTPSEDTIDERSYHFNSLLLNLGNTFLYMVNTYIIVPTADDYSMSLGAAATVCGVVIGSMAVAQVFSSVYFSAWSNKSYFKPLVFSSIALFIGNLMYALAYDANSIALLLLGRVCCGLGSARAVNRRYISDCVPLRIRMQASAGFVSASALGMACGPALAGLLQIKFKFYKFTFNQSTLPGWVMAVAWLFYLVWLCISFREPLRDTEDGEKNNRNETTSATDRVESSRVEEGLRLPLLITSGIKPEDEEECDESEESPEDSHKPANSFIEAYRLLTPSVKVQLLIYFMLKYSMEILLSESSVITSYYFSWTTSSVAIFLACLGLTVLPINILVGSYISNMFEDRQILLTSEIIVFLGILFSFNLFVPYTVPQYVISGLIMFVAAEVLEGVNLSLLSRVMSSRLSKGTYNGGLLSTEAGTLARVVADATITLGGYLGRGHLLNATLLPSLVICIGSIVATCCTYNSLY
T1 sequence (D7TW83 entry or part of it): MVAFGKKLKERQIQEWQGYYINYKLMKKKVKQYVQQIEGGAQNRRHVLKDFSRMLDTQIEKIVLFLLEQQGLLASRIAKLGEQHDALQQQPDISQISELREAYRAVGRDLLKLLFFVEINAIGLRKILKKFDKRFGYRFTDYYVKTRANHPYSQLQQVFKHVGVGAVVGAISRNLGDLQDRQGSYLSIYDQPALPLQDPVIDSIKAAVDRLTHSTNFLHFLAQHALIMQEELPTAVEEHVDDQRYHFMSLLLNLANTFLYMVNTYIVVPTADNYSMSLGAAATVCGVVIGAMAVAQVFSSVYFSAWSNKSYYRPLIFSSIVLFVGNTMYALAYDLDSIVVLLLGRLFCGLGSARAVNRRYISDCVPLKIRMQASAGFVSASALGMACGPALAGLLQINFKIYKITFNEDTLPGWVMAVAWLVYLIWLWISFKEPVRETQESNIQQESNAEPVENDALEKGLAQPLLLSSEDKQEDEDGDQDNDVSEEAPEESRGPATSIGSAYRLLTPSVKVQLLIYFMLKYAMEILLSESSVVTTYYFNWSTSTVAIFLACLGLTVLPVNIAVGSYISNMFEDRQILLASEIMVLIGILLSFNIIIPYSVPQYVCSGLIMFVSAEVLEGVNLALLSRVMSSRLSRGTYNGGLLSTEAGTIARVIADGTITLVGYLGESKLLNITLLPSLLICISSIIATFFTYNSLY

`O=[N+]([O-])c1ccc(N[C@H]2C(O)O[C@H](CO)[C@@H](O)[C@@H]2O)c2nonc12` (stereo partly drawn) [2-NBDG, 2-[N-(7-nitrobenz-2-oxa-1,3-diazol-4-yl)amino]-2-deoxy-d-Glc] was tested, and the “fluorescent uptake in yeast, confocal microscopy” value (VvVPT1) was “The fluorescence in VvVPT1-expressed yeast strain was stronger than that of the WT”.
With `O=P(O)(O)O` [Pi] the “yeast growth complementation (YP101)” value (AtVPT1) was “The yeast mutant transformed with FaVPT1, VvVPT1, or AtVPT1 restored growth”.
For `OC[C@H]1O[C@@](CO)(O[C@H]2O[C@H](CO)[C@@H](O)[C@H](O)[C@H]2O)[C@@H](O)[C@@H]1O` [Suc], the “yeast growth complementation (SUSY7/ura3)” value (FaVPT1 [1]) was “only FaVPT1 has sucrose transport capacity”.
With `O=c1ccc2cc(O[C@@H]3O[C@H](CO)[C@@H](O)[C@H](O)[C@H]3O)c(O)cc2o1` [esculin] the “fluorescent uptake in yeast, confocal microscopy” value (FaVPT1 [2]) was “the FaVPT1-expressed yeast strain could take up both esculin and sucrose”.
